Assay results taken from patent US12180226B2, “Spirotricycle RIPK1 inhibitors and methods of uses thereof” (Merck Sharp & Dohme LLC, priority 2021, dated 2024).
Where a name gives a salt, the structure may show the parent alone.

biological target: RIPK1 (recombinant GST-RIPK1 kinase domain, residues 1-327) (Homo sapiens (Human), UniProt Q13546); experiment: RIPK1-ADP-Glo Enzymatic Assay; type: biochemical; settings: ADP-Glo; 25 nM GST-RIPK1, 300 μM ATP; assay lower limit ~25 nM; read-out: RIPK1 V0 Ec50
Sequence (Q13546 1-327): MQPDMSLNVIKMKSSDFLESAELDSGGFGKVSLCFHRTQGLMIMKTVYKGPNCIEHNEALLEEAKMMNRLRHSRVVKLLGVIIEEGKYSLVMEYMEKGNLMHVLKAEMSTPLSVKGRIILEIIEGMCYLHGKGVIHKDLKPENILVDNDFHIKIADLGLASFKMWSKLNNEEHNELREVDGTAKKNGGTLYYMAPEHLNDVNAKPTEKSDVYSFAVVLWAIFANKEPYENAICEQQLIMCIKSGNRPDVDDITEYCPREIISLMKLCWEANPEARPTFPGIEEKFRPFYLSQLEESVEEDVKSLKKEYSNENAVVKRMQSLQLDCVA
Method in brief: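 Using dephosphorylated MBP (3 μM) as substrate and 300 μM ATP, 25 nM baculovirus-produced enzyme was reacted for 150 min after a 30-min compound pre-incubation. Luminescent ADP detection followed; lower confidence limit ~25 nM.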

SMILES	EC50 [nM]
O=C1N2[C@H](OC13CCN(c1ccnc4c(F)cnn14)CC3)[C@H](O)C[C@H]2c1ccccc1 [Example 4.149, (5′S,7′R,7a′R)-1-(3-fluoropyrazolo[1,5-a]pyrimidin-7-yl)-7′-hydroxy-5′-phenyltetrahydro-3′H-spiro[piperidine-4,2′-pyrrolo[2,1-b] [1,3]oxazol]-3′-one]	< 25
CC1CN(c2ccnc3ccnn23)CCC12O[C@@H]1CC[C@@H](c3ccccc3)N1C2=O (stereo partly drawn) [Example 4.246, (4R,5′S,7a′R)-3-methyl-5′-phenyl-1-(pyrazolo[1,5-a]pyrimidin-7-yl)tetrahydro-3′H-spiro[piperidine-4,2′-pyrrolo[2,1-b] [1,3]oxazol]-3′-one]	< 25
O=C1N2[C@@H](CC[C@H]2c2ccccc2)OC12CCN(c1cccn3nccc13)CC2 [Example 4.150, (5′S,7a′R)-5′-phenyl-1-(pyrazolo[1,5-a]pyridin-4-yl)tetrahydro-3′H-spiro[piperidine-4,2′-pyrrolo[2,1-b] [1,3]oxazol]-3′-one]	34.4
Cn1ccc(C(=O)N2CCC3(CC2)O[C@@H]2CC[C@@H](c4cc(F)cc(F)c4)N2C3=O)n1 [Example 5.39, (5′S,7a′R)-5′-(3,5-difluoro-phenyl)-1-(1-methyl-1H-pyrazole-3-carbonyl)tetra-hydro-3′H-spiro[piperi-dine-4,2′-pyrrolo[2,1-b]oxazol]-3′-one]	172
N#Cc1cnn2c(N3CCC4(CC3)O[C@@H]3CC[C@@H](c5ccccc5)N3C4=O)ncnc12 [Example 4.218, 4-[(5′S,7a′R)-3′-oxo-5′-phenyltetrahydro-1H,3′H-spiro[piperidine-4,2′-pyrrolo[2,1-b] [1,3]oxazol]-1-yl]pyrazolo[1,5-a] [1,3,5]triazine-8-carbonitrile]	< 25
O=C(c1ccn(C(F)F)n1)N1CCC2(CC1)O[C@@H]1CC[C@@H](c3cc(F)cc(F)c3)N1C2=O [Example 5.41]	129
O=C(c1cc(F)ccc1F)N1CC2(C1)O[C@@H]1CC[C@@H](c3cc(F)cc(F)c3)N1C2=O [Example 1.20, (5′S,7a′R)-1-(2,5-difluorobenzoyl)-5′-(3,5-difluorophenyl)tetrahydro-3′H-spiro[azetidine-3,2′-pyrrolo[2,1-b]oxazol]-3′-one]	41.7
O=C1N2[C@@H](CC[C@H]2c2cc(F)cc(F)c2)OC12CN(c1ccnc3ccnn13)C2 [Example 4.134, (5′S,7a′R)-5′-(3,5-difluorophenyl)-1-(pyrazolo[1,5-a]pyrimidin-7-yl)tetrahydro-3′H-spiro[azetidine-3,2′-pyrrolo[2,1-b] [1,3]oxazol]-3′-one]	27.3
O=C(c1nccs1)N1CCC2(CC1)O[C@@H]1CC[C@@H](c3cc(F)cc(F)c3)N1C2=O [Example 5.35, (5′S,7a′R)-5′-(3,5-difluoro-phenyl)-1-(thiazole-2-carbonyl)tetrahydro-3′H-spiro[piperidine-4,2′-pyrrolo[2,1-b]oxazol]-3′-one]	25
O=C1N2[C@@H](CC[C@H]2c2cccc(F)c2)OC12CCN(c1ccnc3ccnn13)CC2 [Example 4.123, (5′S,7a′R)-5′-(3-fluorophenyl)-1-(pyrazolo[1,5-a]pyrimidin-7-yl)tetrahydro-3′H-spiro[piperidine-4,2′-pyrrolo[2,1-b] [1,3]oxazol]-3′-one]	< 25
CCOC(=O)c1ccc(N2CCC3(CC2)O[C@@H]2CC[C@@H](c4ccccc4)N2C3=O)nc1 [Example 4.200, ethyl 6-[(5′S,7a′R)-3′-oxo-5′-phenyltetrahydro-1H,3′H-spiro[piperidine-4,2′-pyrrolo[2,1-b] [1,3]oxazol]-1-yl]pyridine-3-carboxylate]	52.5
COc1cc(N2CCC3(CC2)O[C@@H]2CC[C@@H](c4cc(F)cc(F)c4)N2C3=O)ncn1 [Example 4.11, (5′S,7a′R)-5′-(3,5-difluorophenyl)-1-(6-methoxypyrimidin-4-yl)tetrahydro-3′H-spiro[piperidine-4,2′-pyrrolo[2,1-b] [1,3]oxazol]-3′-one]	< 25
O=C1N2[C@@H](CC[C@H]2c2ccccc2)OC12CCN(c1nc3cnccc3o1)CC2 [Example 4.159, (5′S,7a′R)-1-([1,3]oxazolo[4,5-c]pyridin-2-yl)-5′-phenyltetrahydro-3′H-spiro[piperidine-4,2′-pyrrolo[2,1-b] [1,3]oxazol]-3′-one]	62.6
O=C1N2[C@@H](CC[C@H]2c2ccccc2)OC12CCN(c1ncnn3c(F)cnc13)CC2 [Example 4.226, (5′S,7a′R)-1-(7-fluoroimidazo[2,1-f] [1,2,4]triazin-4-yl)-5′-phenyltetrahydro-3′H-spiro[piperidine-4,2′-pyrrolo[2,1-b] [1,3]oxazol]-3′-one]	< 25
NC(=O)c1ccc(N2CCC3(CC2)O[C@@H]2CC[C@@H](c4ccccc4)N2C3=O)nc1 [Example 4.199, 6-[(5′S,7a′R)-3′-oxo-5′-phenyltetrahydro-1H,3′H-spiro[piperidine-4,2′-pyrrolo[2,1-b] [1,3]oxazol]-1-yl]pyridine-3-carboxamide]	36.2
O=C(c1cc(F)ccc1F)N1CCC2(CC1)SC1CCC(c3ccccc3)N1C2=O (centres unmarked) [Example 1.24, 1-(2,5-difluorobenzene-1-carbonyl)-5′-phenyltetrahydro-3′H-spiro[piperidine-4,2′-pyrrolo[2,1-b] [1,3]thiazol]-3′-one]	23
N#Cc1ccc(N2CCC3(CC2)O[C@@H]2CC[C@@H](c4ccccc4)N2C3=O)n2ncc(F)c12 [Example 4.177, 3-fluoro-7-[(5′S,7a′R)-3′-oxo-5′-phenyltetrahydro-1H,3′H-spiro[piperidine-4,2′-pyrrolo[2,1-b] [1,3]oxazol]-1-yl]pyrazolo[1,5-a] pyridine-4-carbonitrile]	< 25

The remaining lines, values ahead:

EC50 [nM]	SMILES
208	O=C1N2[C@@H](CC[C@H]2c2cc(F)cc(F)c2)OC12CCN(c1ccc(OCC3CCO3)c3ccnn13)CC2 (mixture of isomers) [Example 19.5, (5′S,7a′R)-5′-(3,5-difluorophenyl)-1-(4-(((R and S)-oxetan-2-yl)methoxy)pyrazolo [1,5-a]pyridin-7-yl)tetrahydro-3′H-spiro[piperidine-4,2′-pyrrolo[2,1-b]oxazol]-3′-one, TFA salt]
< 25	O=C1N2[C@@H](CC[C@H]2c2ccccc2)OC12CCN(c1ccc(Cl)c3ncnn13)CC2 [Example 15.3, (5′S,7a′R)-1-(8-chloro-[1,2,4]triazolo[1,5-a]pyridin-5-yl)-5′-phenyltetrahydro-3′H-spiro[piperidine-4,2′-pyrrolo[2,1-b]oxazol]-3′-one, TFA salt]
< 25	Cc1ccc([C@@H]2CC[C@H]3OC4(CCN(C(=O)c5ccccc5)CC4)C(=O)N32)cc1 [Example 17.3, (5′S,7a′R)-1-benzoyl-5′-(p-tolyl)tetrahydro-3′H-spiro[piperidine-4,2′-pyrrolo[2,1-b]oxazol]-3′-one]
263	O=C(c1cnnc2ccccc12)N1CCC2(CC1)O[C@@H]1CC[C@@H](c3cc(F)cc(F)c3)N1C2=O [Example 6.58, (5′S,7a′R)-1-(cinn-oline-4-carbonyl)-5′-(3,5-difluorophenyl) tetrahydro-3′H-spiro [piperidine-4,2′-pyrrolo[2,1-b][1,3]-oxazol]-3'-one]
95	Cc1oncc1C(=O)N1CCC2(CC1)O[C@@H]1CC[C@@H](c3cc(F)cc(F)c3)N1C2=O [Example 6.60, (5′S,7a′R)-5′-(3,5-difluorophenyl)-1-(5-methyl-1,2-oxazole-4-carbonyl)tetrahydro-3′H-spiro[piperidine-4,2′-pyrrolo[2,1-b] [1,3]oxazol]-3′-one]
61.1	O=C1N2[C@@H](CC[C@H]2c2ccccc2)OC12CCN(c1nc(-c3ccccn3)cs1)CC2 [Example 11.4, (5′S,7a′R)-5′-phenyl-1-[4-(pyridin-2-yl)-1,3-thiazol-2-yl]tetrahydro-3′H-spiro[piperidine-4,2′-pyrrolo[2,1-b][1,3]oxazol]-3′-one]
57.9	O=C(c1ccncn1)N1CCC2(CC1)O[C@@H]1CC[C@@H](c3cc(F)cc(F)c3)N1C2=O [Example 6.63, (5′S,7a′R)-5′-(3,5-difluorophenyl)-1-(pyrimidine-4-carbon-yl)tetrahydro-3′H-spiro[piperidine-4,2′-pyrrolo[2,1-b][1,3]-oxazol]-3′-one]
< 25	N#Cc1ccc(N2CCC3(CC2)O[C@@H]2CC[C@@H](c4cc(F)cc(F)c4)N2C3=O)n2nccc12 [Example 14.1, 7-((5′S,7a′R)-5′-(3,5-difluorophenyl)-3′-oxotetrahydro-3′H-spiro [piperidine-4,2′-pyrrolo [2,1-b]oxazol]-1-yl)pyrazolo[1,5-a]pyridine-4-carbonitrile, TFA]
266	O=C1N2[C@@H](CC[C@H]2c2ccccc2)OC12CCN(c1ncc(C3CC3)cn1)CC2 [Example 11.13, (5′S,7a′R)-1-(5-cyclopropylpyrimidin-2-yl)-5′-phenyltetrahydro-3′H-spiro[piperidine-4,2′-pyrrolo[2,1-b][1,3]oxazol]-3′-one]
118	Cc1cc(C)cc(C(=O)N2CCC3(CC2)O[C@@H]2CC[C@@H](c4ccccc4)N2C3=O)c1 [Example 6.150, (5′S,7a′R)-1-(3,5-dimethylbenzene-1-carbonyl)-5′-phenyl-tetrahydro-3′H-spiro [piperidine-4,2′-pyrrolo[2,1-b][1,3]oxazol]-3′-one]
213	Cc1ccccc1CN1CCC2(CC1)O[C@@H]1CC[C@@H](c3cc(F)cc(F)c3)N1C2=O [Example 22.5, (5′S,7a′R)-5′-(3,5-difluorophenyl)-1-[(2-methylphenyl)methyl] tetrahydro-3′H-spiro[piperidine-4,2′-pyrrolo[2,1-b][1,3]oxazol]-3′-one]
93	O=C1N2[C@@H](CC[C@H]2c2ccccc2)OC12CCN(c1ccc(-n3ccnc3)nn1)CC2 [Example 11.18, (5′S,7a′R)-1-[6-(1H-imidazol-1-yl)pyridazin-3-yl]-5′-phenyltetrahydro-3′H-spiro[piperidine-4,2′-pyrrolo[2,1-b][1,3]oxazol]-3′-one]
